Values of other authors as cited in US20240408173A1, “SILK FIBROIN-CONTAINING COMPOSITION AND METHODS OF USE THEREOF” (Georgetown University, priority 2017, published 2024).

- Water solubility: No
SMILES: FC(F)(F)C(F)(F)C(F)(F)C(F)(F)C(F)(F)C(F)(F)C(F)(F)C(F)(F)Br [PFC, perfluorooctylbromide]
